Assay results: ChEMBL document CHEMBL1150977, “A quantitative analysis of kinase inhibitor selectivity” (Nat Biotechnol, 2008)

Experiments:
[1] = target: Tyrosine-protein kinase SYK (Homo sapiens, UniProt P43405)
[2] = target: T1, Membrane-associated tyrosine- and threonine-specific cdc2-inhibitory kinase (Homo sapiens, UniProt Q99640)
T1 sequence (Q99640 whole entry): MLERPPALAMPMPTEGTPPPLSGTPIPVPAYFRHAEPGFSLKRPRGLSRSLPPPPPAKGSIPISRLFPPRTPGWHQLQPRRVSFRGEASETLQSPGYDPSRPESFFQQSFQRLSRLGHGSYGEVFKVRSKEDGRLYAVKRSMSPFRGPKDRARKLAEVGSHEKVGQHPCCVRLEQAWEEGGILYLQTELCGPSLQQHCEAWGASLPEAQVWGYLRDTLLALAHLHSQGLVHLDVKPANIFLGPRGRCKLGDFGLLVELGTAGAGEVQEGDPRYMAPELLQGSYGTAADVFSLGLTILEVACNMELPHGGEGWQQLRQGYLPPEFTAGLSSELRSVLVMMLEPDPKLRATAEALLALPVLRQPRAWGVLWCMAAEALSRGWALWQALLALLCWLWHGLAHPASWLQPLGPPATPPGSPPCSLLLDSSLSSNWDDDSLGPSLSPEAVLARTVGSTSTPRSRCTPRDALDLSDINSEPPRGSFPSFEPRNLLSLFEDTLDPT

[3] = target: Cyclin-dependent kinase 2 (Homo sapiens, UniProt P24941)
TGF-beta receptor type-2 = TGF-beta receptor type-2 (Homo sapiens, UniProt P37173)
[4] = target: TRAF2 and NCK-interacting protein kinase (Homo sapiens, UniProt Q9UKE5)
[5] = target: Mitogen-activated protein kinase kinase kinase kinase 5 (Homo sapiens, UniProt Q9Y4K4)
[6] = target: T2, Serine/threonine-protein kinase STK11 (Homo sapiens, UniProt Q15831)
T2 sequence (Q15831 whole entry): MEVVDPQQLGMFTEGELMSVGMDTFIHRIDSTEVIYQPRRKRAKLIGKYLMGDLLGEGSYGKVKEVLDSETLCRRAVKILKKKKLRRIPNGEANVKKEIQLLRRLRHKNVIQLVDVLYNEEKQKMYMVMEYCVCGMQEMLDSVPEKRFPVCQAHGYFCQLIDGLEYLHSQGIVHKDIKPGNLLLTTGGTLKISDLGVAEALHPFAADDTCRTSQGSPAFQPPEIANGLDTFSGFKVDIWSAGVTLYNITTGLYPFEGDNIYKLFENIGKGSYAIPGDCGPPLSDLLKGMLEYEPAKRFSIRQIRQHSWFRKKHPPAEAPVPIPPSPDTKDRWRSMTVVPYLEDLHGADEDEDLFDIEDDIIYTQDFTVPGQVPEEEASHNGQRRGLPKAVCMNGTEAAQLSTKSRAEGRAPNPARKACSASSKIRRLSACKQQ

[7] = target: T3, Serine/threonine-protein kinase D3 (Homo sapiens, UniProt O94806)
T3 sequence (O94806 whole entry): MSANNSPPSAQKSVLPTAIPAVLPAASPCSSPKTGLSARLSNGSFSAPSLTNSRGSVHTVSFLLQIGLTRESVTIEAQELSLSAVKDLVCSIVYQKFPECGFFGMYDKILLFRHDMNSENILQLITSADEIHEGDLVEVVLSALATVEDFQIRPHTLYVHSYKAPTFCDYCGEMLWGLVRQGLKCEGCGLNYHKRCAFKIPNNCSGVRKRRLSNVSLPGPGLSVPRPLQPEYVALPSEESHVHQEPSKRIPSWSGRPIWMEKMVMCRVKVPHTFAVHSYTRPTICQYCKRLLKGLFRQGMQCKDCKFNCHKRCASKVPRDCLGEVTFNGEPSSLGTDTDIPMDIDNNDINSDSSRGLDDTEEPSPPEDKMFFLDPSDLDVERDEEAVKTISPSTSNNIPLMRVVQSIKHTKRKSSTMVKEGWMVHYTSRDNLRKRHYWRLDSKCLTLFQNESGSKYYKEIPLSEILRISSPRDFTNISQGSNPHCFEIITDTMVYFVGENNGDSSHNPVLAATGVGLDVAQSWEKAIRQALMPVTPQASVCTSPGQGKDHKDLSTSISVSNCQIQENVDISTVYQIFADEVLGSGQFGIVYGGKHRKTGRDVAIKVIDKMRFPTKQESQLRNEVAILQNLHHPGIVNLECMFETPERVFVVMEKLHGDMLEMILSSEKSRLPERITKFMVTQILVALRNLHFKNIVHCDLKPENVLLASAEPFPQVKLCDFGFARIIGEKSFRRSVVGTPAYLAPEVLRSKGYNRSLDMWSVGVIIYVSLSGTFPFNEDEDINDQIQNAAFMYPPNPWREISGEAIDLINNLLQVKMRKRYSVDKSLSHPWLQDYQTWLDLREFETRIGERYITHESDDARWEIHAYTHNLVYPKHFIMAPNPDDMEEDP

[8] = target: T4, Tyrosine-protein kinase ZAP-70 (Homo sapiens, UniProt P43403)
T4 sequence (P43403 whole entry): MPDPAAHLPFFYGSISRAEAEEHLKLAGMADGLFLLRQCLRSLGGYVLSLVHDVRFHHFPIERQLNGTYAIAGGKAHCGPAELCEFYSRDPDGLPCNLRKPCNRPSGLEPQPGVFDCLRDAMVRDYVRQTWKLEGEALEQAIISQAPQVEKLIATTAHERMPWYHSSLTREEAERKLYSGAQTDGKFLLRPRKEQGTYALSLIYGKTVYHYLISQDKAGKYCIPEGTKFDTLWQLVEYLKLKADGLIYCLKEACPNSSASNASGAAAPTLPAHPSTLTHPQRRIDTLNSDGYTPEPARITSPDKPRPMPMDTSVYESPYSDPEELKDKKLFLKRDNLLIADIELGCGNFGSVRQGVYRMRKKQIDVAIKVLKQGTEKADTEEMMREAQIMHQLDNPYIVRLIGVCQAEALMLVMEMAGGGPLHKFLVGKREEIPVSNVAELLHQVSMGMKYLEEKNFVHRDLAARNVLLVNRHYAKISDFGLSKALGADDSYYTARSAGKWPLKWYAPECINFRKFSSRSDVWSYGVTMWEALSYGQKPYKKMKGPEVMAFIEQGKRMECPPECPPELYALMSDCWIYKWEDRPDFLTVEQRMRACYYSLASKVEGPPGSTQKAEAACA

Sequence of TGF-beta receptor type-2 (P37173 whole entry): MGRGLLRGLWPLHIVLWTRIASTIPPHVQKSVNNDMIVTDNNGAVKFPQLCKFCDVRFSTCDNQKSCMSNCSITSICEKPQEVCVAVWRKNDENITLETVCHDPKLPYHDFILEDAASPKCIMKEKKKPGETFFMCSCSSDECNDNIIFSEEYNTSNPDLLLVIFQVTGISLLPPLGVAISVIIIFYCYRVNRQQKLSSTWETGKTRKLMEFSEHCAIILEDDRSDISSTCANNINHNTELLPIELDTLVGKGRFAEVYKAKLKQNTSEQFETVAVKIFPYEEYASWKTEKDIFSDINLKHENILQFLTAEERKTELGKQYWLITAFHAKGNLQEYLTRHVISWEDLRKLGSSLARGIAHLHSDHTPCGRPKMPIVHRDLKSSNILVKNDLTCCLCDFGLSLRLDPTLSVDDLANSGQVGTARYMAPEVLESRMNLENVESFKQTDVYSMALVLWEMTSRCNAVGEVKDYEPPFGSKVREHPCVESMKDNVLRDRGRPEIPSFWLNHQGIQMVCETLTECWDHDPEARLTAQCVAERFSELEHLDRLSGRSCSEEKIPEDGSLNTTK
Sequence of TRAF2 and NCK-interacting protein kinase (Q9UKE5 whole entry): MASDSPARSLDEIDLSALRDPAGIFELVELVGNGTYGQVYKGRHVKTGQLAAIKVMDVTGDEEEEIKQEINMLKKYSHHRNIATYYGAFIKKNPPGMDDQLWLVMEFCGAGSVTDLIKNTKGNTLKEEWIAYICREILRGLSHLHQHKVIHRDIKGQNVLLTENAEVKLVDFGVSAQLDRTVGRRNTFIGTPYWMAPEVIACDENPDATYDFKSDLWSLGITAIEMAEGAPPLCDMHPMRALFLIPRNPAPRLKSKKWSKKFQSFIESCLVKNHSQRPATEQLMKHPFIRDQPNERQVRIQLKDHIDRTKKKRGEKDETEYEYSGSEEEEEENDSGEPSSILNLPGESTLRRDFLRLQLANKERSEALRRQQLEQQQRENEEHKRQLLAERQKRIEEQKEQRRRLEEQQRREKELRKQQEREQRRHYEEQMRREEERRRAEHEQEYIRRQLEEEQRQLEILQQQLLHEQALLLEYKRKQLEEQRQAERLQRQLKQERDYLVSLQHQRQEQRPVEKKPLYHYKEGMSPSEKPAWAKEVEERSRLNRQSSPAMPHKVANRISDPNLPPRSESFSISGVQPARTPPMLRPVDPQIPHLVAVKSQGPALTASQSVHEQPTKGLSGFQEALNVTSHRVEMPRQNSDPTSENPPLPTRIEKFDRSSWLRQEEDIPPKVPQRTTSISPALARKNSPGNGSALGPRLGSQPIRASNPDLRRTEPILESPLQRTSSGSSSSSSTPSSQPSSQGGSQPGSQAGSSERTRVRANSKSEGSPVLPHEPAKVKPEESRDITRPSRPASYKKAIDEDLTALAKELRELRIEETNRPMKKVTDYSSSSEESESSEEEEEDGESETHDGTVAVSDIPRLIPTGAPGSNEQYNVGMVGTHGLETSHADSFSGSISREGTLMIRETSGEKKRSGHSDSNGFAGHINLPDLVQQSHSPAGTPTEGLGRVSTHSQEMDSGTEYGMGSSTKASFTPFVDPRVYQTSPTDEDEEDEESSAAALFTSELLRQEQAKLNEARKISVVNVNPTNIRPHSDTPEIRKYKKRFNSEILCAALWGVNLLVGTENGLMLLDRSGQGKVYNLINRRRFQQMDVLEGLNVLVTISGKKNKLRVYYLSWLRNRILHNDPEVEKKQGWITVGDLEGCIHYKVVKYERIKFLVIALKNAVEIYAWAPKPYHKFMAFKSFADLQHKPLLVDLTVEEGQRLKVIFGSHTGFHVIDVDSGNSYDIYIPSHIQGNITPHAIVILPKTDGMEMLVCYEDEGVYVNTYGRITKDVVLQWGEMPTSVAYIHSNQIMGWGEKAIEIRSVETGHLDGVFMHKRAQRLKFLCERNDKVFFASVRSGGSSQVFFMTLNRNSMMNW
Sequence of Mitogen-activated protein kinase kinase kinase kinase 5 (Q9Y4K4 whole entry): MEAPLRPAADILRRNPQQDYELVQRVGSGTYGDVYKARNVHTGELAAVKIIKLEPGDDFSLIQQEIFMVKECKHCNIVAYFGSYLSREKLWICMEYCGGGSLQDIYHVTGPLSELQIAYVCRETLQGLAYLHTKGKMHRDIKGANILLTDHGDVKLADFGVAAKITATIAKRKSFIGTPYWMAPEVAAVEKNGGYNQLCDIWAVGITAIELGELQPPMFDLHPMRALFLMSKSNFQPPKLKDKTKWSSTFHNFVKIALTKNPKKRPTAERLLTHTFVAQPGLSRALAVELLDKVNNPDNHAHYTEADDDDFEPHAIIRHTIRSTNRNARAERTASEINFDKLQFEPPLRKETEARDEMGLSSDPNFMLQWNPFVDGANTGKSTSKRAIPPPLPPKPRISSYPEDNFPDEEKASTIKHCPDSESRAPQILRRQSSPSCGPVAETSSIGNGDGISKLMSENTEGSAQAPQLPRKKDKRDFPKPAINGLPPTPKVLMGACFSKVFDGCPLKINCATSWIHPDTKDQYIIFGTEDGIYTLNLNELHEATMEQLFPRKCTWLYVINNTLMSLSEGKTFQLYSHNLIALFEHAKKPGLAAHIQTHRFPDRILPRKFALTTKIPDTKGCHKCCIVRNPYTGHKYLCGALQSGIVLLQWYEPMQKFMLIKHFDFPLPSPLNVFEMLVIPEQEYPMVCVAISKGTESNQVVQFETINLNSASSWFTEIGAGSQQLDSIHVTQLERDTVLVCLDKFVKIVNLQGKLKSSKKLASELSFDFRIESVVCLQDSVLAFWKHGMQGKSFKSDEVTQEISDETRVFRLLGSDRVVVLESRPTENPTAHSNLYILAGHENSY

SMILES | Kd [1] [µM] | Kd [2] [µM] | Kd [3] [µM] | Kd (TGF-beta receptor type-2) [µM] | Kd [4] [µM] | Kd [5] [µM] | Kd [6] [µM] | Kd [7] [µM] | Kd [8] [µM]
COCC(=O)NC/C=C/c1ccc2ncnc(Nc3ccc(Oc4ccc(C)nc4)c(C)c3)c2c1 [CP-724714] | > 10 | > 10 | > 10 | > 10 | > 10 | > 10 | > 10 | > 10 | > 10
Nc1nc(Nc2ccc(S(N)(=O)=O)cc2)nn1C(=O)c1c(F)cccc1F [JNJ-7706621] | – | > 10 | – | > 10 | > 10 | – | > 10 | – | > 10
CCOc1cc2ncc(C#N)c(Nc3ccc(F)c(Cl)c3)c2cc1NC(=O)/C=C/CN(C)C [PELITINIB] | 7.2 | 2.9 | > 10 | > 10 | – | 0.01 | > 10 | > 10 | > 10
Oc1ccc(-c2nc(-c3ccncc3)c(-c3ccc(F)cc3)[nH]2)cc1 [SB-202190] | > 10 | > 10 | > 10 | > 10 | 1.6 | > 10 | > 10 | > 10 | > 10
NC(=O)c1ccc(-c2nc(-c3ccc4c(c3)OCO4)c(-c3ccccn3)[nH]2)cc1 [SB-431542] | > 10 | > 10 | – | – | > 10 | > 10 | > 10 | – | > 10
